The values that follow come from US8158623B2, “Heptacyclic compounds and the pharmaceutical uses thereof for preventing and treating diabetes and metabolic syndrome” (Shanghai Institute of Materia Medica Chinese Academy of …, priority 2007, dated 2012).

For this assay, the system named is ob/ob mice. In words: Effect of F7 on glucose and lipid metabolic disorder, serum biochemical indicators. It is filed as in vivo. The settings on record: oral 50 mg/kg once daily for 3 weeks. As for the experimental part: Genetic spontaneous diabetes ob/ob mice were purchased from Jackson (USA), and maintained in a SPF facility (temperature: 22-24° C., humidity: 45-80%, illumination: 150-300 Lx, 12/12-hour light/dark cycle). Fasting blood glucose was determined daily for 3 days continuously when the mice were 7 weeks old. The mice were grouped into the treatment group and the control group (8 animals per group) according to the results determined. The two groups were administered orally with compound F7 (50 mg/kg) and a solution of 0.1% Tween 80 respectively, once daily for 3 weeks. Another group of C57 mice was used as normal control. At the end of administration, blood samples were collected in each group, the serum was separated and serum biochemical indicators were detected.

Molecules are shown by their SMILES.

As for `COc1cc(C(=O)O)c2c(c1C)OC(=O)c1c(C)cc(O)c(C=O)c1O2` [Compound F7, 4-Formyl-3-hydroxy-8-methoxy-1,9-dimethyl-11-oxo-11H-dibenzo[b,e][1,4]dioxepine-6-carboxylic acid], the “CHOL (total cholesterol), serum” value was found to be 6.0 ± 0.8 mmol/L; the “FRU (fructosamine), serum” value came to 225.0 ± 40.4 µmol/L; the “NFFA (unsaturated free fatty acid), serum” value came to 1.15 ± 0.17 mmol/L; the “TG (triglycerides), serum” value was 72.1 ± 11.1 mg/dL. The same molecule yielded a UA (uric acid), serum of 316 ± 109 µM.
